Structures can show the parent of a compound that is named as a salt. Where two headings read alike, the source gives them in different places.
Experiments:
SHP2 = SHP2 (Homo sapiens (Human), UniProt Q06124); assay: SHP2 Biochemical Assay (DiFMUP conversion, pIRS1-activated)
Outline: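 Human SHP2 (10 pM) pre-incubated 30 min with compound and […] pIRS1 activating peptide, then 50 μM DiFMUP added; buffer 25 mM Bis-Tris propane pH 7.0, 150 mM NaCl, 5% DMSO. Fluorescence rate (ex 360/em 450 nm) over 30 min; IC50 by four-parameter fit, averaged across experiments.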

[1] = system: pERK (phospho-p44/42 MAPK Thr202/Tyr204) in HCC827 cells; assay: Cellular pERK Inhibition Assay, Method B (PathScan phospho-p44/42 MAPK sandwich ELISA); format: cell-based; settings: for IC50: Homo sapiens
Procedure: Cellular pERK Inhibition Assay
HCC827 cells (ATCC, Manassas, USA) were seeded into 96-well plates at a density of 1×10^5 cells/well in RPMI medium supplemented with 10% FBS and incubated 24h. Compounds were diluted first in DMSO and then into serum-free medium, before being added to cells in triplicate to give a final concentration of 0.1% DMSO. Plates were incubated at 37° C. for the indicated time in a humidified atmosphere of 5% CO2 in air.
Following compound treatment, medium was removed and cells were lysed by adding 50 μL of lysis buffer (Cell Signalling Technology, Beverly, USA) to each well. Plates were then incubated at room temperature for 25 minutes with shaking. pERK levels were measured in lysates using the PathScan(Registered Trademark) phospho-p44/42 MAPK (Thr202/Tyr204) sandwich ELISA (Cell Signalling Technology, Beverly, USA) as per kit instructions. Briefly, 50 μL of cell lysate was added to 50 μL of ELISA sample diluent in a 96-well ELISA plate and incubated overnight at 4° C. Following washing, 100 μL of detection antibody was added per well and the plates incubated for 1 hour at 37° C. Plates were washed again and incubated at 37° C. for 30 minutes with 100 μl of HRP-linked secondary antibody per well. After final washing, 100 μL per well of TMB substrate was added and plates incubated at 37° C. to develop colour. Colour development was stopped by the addition of 100 μL per well of stop solution. Plates were read at 450 nm on a SpectraMax Gemini reader (Molecular Devices, Uckfield, UK).
The average signal from blank wells (no cells added) was subtracted from the signals from each sample well. Levels of pERK were then expressed as “percent of control”, using DMSO treated samples as control. Dose response curves were generated using GraphPad Prism Version 6 (GraphPad Software, La Jolla, USA) and fitted using the four parameter logistic curve fit.

[2] = Table 19, head prints unit as "-M"
[3] = Table 19, head prints unit as "-M", read-out: pERK (IC50) Method B
[4] = Table 20, read-out: pERK (IC50, μM) Method B

IC50 (SHP2; [2]) | IC50 [1, 3] | IC50 (SHP2; Table 20) | IC50 [1, 4] | SMILES | also measured
12 nM | 0.034 µM | – | – | C[C@@H]1OCC2(CCN(c3nc4[nH]nc(-c5ccc6nn(C)c(Cl)c6c5Cl)c4c(=O)n3C)CC2)[C@@H]1N [Example 147, 6-[(3S,4S)-4-amino-3-methyl-2-oxa-8-azaspiro[4.5]decan-8-yl]-3-(3,4-dichloro-2-methyl-2H-indazol-5-yl)-5-methyl-1H,4H,5H-pyrazolo[3,4-d]pyrimidin-4-one hydrochloride salt] | –
43 nM | – | – | – | Cn1cc2c(Cl)c(-c3n[nH]c4nc(N5CCC6(CC5)CNC6)n(C)c(=O)c34)ccc2n1 [Example 141, 3-(4-chloro-2-methyl-2H-indazol-5-yl)-6-{2,7-diazaspiro[3.5]nonan-7-yl}-5-methyl-1H,4H,5H-pyrazolo[3,4-d]pyrimidin-4-one] | pERK Method B, % at given concentration ([1]; Table 19, at 10 μM): 64% at 10 μM
– | – | 70 nM | 1.1 µM | CCn1cc2ccc(-c3c[nH]c4nc(N5CCC6(CC5)COC[C@H]6N)n(C)c(=O)c34)c(F)c2n1 [Example 184, 2-[(4S)-4-amino-2-oxa-8-azaspiro[4.5]decan-8-yl]-5-(2-ethyl-7-fluoro-2H-indazol-6-yl)-3-methyl-3H,4H,7H-pyrrolo[2,3-d]pyrimidin-4-one hydrochloride] | –
– | – | 51 nM | 0.8 µM | Cn1c(N2CC[C@H](N)[C@H](F)C2)nc2[nH]cc(-c3ccc4ncsc4c3Cl)c2c1=O [Example 187, 2-[(3R,4S)-4-amino-3-fluoropiperidin-1-yl]-5-(7-chloro-1,3-benzothiazol-6-yl)-3-methyl-3H,4H,7H-pyrrolo[2,3-d]pyrimidin-4-one hydrochloride] | –
– | – | 45 nM | 3.3 µM | CCn1cc2c(Cl)c(-c3c[nH]c4nc(N5CC6CNC(C6)C5)n(C)c(=O)c34)ccc2n1 (single isomer, unassigned) [Example 190, 5-(4-chloro-2-ethyl-2H-indazol-5-yl)-2-{3,6-diazabicyclo[3.2.1]octan-3-yl}-3-methyl-3H,4H,7H-pyrrolo[2,3-d]pyrimidin-4-one hydrochloride] | –
12 nM | 0.013 µM | – | – | CCn1cc2c(Cl)c(-c3c[nH]c4nc(N5CCC6(CC5)CO[C@@H](C)[C@H]6N)n(C)c(=O)c34)ccc2n1 [Example 150, 2-[(3S,4S)-4-amino-3-methyl-2-oxa-8-azaspiro[4.5]decan-8-yl]-5-(4-chloro-2-ethyl-2H-indazol-5-yl)-3-methyl-3H,4H,7H-pyrrolo[2,3-d]pyrimidin-4-one] | –

Continued, molecule first:

SMILES | IC50 (SHP2; [2]) | IC50 [1, 3] | IC50 (SHP2; Table 20) | IC50 [1, 4] | also measured
Cn1cc2c(Cl)c(-c3n[nH]c4nc(N5[C@@H]6CC[C@H]5C[C@H](N)C6)n(C)c(=O)c34)ccc2n1 [Example 140, exo-6-[3-amino-8-azabicyclo[3.2.1]octan-8-yl]-3-(4-chloro-2-methyl-2H-indazol-5-yl)-5-methyl-1H,4H,5H-pyrazolo[3,4-d]pyrimidin-4-one] | 17 nM | 0.48 µM | – | – | –
Cn1cc2c(Cl)c(-c3n[nH]c4nc(N5[C@@H]6CC[C@H]5C[C@@H](N)C6)n(C)c(=O)c34)ccc2n1 [Example 136, endo-6-[3-amino-8-azabicyclo[3.2.1]octan-8-yl]-3-(4-chloro-2-methyl-2H-indazol-5-yl)-5-methyl-1H,4H,5H-pyrazolo[3,4-d]pyrimidin-4-one] | 30 nM | 2.7 µM | – | – | –
C[C@@H]1OCC2(CCN(c3nc4[nH]nc(-c5ccc6nn(C)cc6c5Cl)c4c(=O)n3C)CC2)[C@@H]1N [Example 143, 6-[(3S,4S)-4-amino-3-methyl-2-oxa-8-azaspiro[4.5]decan-8-yl]-3-(4-chloro-2-methyl-2H-indazol-5-yl)-5-methyl-1H,4H,5H-pyrazolo[3,4-d]pyrimidin-4-one] | 22 nM | 0.081 µM | – | – | –
Cn1cc2c(Cl)c(-c3c[nH]c4nc(N5[C@@H]6CCNC[C@H]5CC6)n(C)c(=O)c34)ccc2n1 [Example 189, 5-(4-chloro-2-methyl-2H-indazol-5-yl)-2-[(1R,6S)-3,9-diazabicyclo[4.2.1]nonan-9-yl]-3-methyl-3H,4H,7H-pyrrolo[2,3-d]pyrimidin-4-one hydrochloride] | – | – | 19 nM | 0.23 µM | –
Cn1cc2c(Cl)c(-c3n[nH]c4nc(N5C6CCC5CNC6)n(C)c(=O)c34)ccc2n1 [Example 137, 3-(4-chloro-2-methyl-2H-indazol-5-yl)-6-{3,8-diazabicyclo[3.2.1]octan-8-yl}-5-methyl-1H,4H,5H-pyrazolo[3,4-d]pyrimidin-4-one] | 59 nM | – | – | – | pERK Method B, % at given concentration ([1]; Table 19, at 3.0 μM): 45% at 3.0 μM

From patent US12037345B2, “Heterobicyclic compounds for inhibiting the activity of SHP2” (TAIHO PHARMACEUTICAL CO., LTD., priority 2018, dated 2024)
